ChEMBL document CHEMBL1128786, “Design, synthesis and evaluation of C/D-ring analogs of the fungal metabolite K-76 as potential complement inhibitors” (Bioorg Med Chem Lett, 1995)

What was measured:
[1] = organism: Homo sapiens; experiment: The concentration of compound required to inhibit complement induced hemolysis by 50%; assay type: functional
[2] = The concentration of compound required to cause 50% hemolysis in the absence of complement; assay type: functional, Ovis aries

Row | SMILES | IC50 [1] | EC50 [2]
1 | COc1cc(C=O)cc2c1CC(C)(C)O2 | 1100 µM | > 1460 µM
2 | CC1(C)Cc2c(O)cc(C=O)cc2O1 | > 1560 µM | > 1560 µM
3 | COc1cc(-c2nn[nH]n2)cc2c1CC(C)(C)O2 | 245 µM | > 1220 µM
4 | CC1(C)Cc2c(Oc3ccccc3)cc(-c3nn[nH]n3)cc2O1 | 195 µM | 650 µM
5 | CC1(C)Cc2c(Oc3ccccc3)cc(C(=O)O)cc2O1 | > 1060 µM | > 1060 µM
6 | CC1(C)Cc2c(O)cc(C(=O)O)cc2O1 | > 1440 µM | > 1440 µM
7 | C[C@@H]1CCC2C(C)(C)[C@H](O)[C@H](O)C[C@]2(C)[C@@]12Cc1c(O)cc(C(=O)O)c(C=O)c1O2 (some centres not stated) | – | > 680 µM
8 | COc1cc(C(=O)O)cc2c1CC(C)(C)O2 | > 1350 µM | > 1350 µM
9 | CC1(C)Cc2c(Oc3ccccc3)cc(C=O)cc2O1 | > 1120 µM | > 1120 µM
